ChEMBL document CHEMBL1201862, “PubChem BioAssay data set” (2004)
Blank lines part the entries; values can stand above or below the compound they belong to. Active and inactive are the calls of the source.

Tests used:
[1] = HIV-1 AD8 envelope cell-cell fusion blockers – cherry-pick, dose response (AID 652062); format: functional, cell-based;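 also: luciferase signal from cell-cell fusion driven by HIV-1 clade B AD8 Env; potency is for inhibitors of fusion seen as a drop in luminescence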
[2] = blockers of HIV-1 ZM109 envelope-driven cell-cell fusion – HeLa effector, CEM target cells, luciferase, cherry-pick, dose response (AID 652058); format: functional, cell-based;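 also: luciferase signal from HIV-1 Env mediated cell-cell fusion of effector and target cells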
[3] = off-target signal loss in HeLa-CEM21 co-culture – HeLa F-luc CTL cells, cherry-picked, counter-screen for HIV-1 Env fusion inhibitor project, dose response (AID 652040); format: functional, cell-based;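 also: potency for signal decrease marking cytotoxic or nonspecific inhibition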
[4] = viability loss in CEM21 cells – cell-based, CellTiter-Glo luminescence, cherry-picked, cytotoxicity control for viral fusion inhibitor project, dose response (AID 652042); format: functional;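 also: potency for signal decrease meaning cytotoxicity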
[5] = blockers of HIV-1 envelope-mediated cell-cell fusion – cherry-pick, dose response (AID 652057); format: functional, cell-based
[6] = test system: A549; assay: viability loss in A549 cells – cell-based, plate reader, cherry-pick samples, cytotoxicity control, dose response (AID 687028); format: functional; settings: Homo sapiens
[7] = test system: BHK-21; assay: viability loss in BHK-21 cells – cell-based, plate reader, cherry-pick samples, cytotoxicity control, dose response (AID 687030); format: functional; settings: Mesocricetus auratus
[8] = test system: Vero; assay: viability loss in Vero cells – cell-based, plate reader, cherry-pick samples, cytotoxicity control, dose response (AID 687020); format: functional; settings: Chlorocebus sabaeus
[9] = HGIII-sPLA2 enzyme inhibition potency – biochemical, QFRET, IC50, dose response (AID 743457);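 also: green fluorescence rise as the enzyme cleaves BODIPY PC-A2 in liposomes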
[10] = molecular target: Tyrosine-protein phosphatase non-receptor type 5 (Homo sapiens, UniProt P54829); assay: PTPN5 enzyme inhibition – biochemical, fluorescence intensity, uHTS hits, confirmation (AID 602372); format: functional; settings: read-out: IC50_Mean
Chain of Tyrosine-protein phosphatase non-receptor type 5 (P54829 whole entry): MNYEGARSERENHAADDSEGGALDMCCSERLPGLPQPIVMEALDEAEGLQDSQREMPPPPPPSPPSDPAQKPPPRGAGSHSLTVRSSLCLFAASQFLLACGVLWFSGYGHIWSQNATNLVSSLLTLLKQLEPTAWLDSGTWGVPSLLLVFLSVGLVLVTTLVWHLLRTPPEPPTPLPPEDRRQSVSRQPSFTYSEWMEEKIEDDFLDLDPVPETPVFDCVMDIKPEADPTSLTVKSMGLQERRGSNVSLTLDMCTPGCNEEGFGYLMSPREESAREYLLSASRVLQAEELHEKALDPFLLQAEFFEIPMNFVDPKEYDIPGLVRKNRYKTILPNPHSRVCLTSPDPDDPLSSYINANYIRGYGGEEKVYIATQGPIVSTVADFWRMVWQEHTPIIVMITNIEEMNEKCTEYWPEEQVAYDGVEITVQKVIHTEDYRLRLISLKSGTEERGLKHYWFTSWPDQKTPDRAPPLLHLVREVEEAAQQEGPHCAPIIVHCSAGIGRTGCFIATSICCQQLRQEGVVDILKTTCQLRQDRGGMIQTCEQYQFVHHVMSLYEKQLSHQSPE

[11] = molecular target: Dual specificity protein phosphatase 3 (Homo sapiens, UniProt P51452); assay: VHR phosphatase inhibition, dose response, selectivity assay for STEP inhibitor project, biochemical (AID 602374); format: functional; settings: read-out: IC50_Mean
Chain of Dual specificity protein phosphatase 3 (P51452 whole entry): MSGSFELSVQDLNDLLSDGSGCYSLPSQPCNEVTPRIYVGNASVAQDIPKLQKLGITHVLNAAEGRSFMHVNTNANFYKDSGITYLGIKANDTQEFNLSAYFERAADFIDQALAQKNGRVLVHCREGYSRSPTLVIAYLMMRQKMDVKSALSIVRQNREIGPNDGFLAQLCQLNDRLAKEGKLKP

[12] = molecular target: T1, Tyrosine-protein phosphatase non-receptor type 22 (Homo sapiens, UniProt Q9Y2R2); assay: lymphoid phosphatase LYP inhibitors – biochemical, selectivity assay for STEP inhibitor project, dose response (AID 624241); format: functional
T1 sequence (Q9Y2R2 whole entry): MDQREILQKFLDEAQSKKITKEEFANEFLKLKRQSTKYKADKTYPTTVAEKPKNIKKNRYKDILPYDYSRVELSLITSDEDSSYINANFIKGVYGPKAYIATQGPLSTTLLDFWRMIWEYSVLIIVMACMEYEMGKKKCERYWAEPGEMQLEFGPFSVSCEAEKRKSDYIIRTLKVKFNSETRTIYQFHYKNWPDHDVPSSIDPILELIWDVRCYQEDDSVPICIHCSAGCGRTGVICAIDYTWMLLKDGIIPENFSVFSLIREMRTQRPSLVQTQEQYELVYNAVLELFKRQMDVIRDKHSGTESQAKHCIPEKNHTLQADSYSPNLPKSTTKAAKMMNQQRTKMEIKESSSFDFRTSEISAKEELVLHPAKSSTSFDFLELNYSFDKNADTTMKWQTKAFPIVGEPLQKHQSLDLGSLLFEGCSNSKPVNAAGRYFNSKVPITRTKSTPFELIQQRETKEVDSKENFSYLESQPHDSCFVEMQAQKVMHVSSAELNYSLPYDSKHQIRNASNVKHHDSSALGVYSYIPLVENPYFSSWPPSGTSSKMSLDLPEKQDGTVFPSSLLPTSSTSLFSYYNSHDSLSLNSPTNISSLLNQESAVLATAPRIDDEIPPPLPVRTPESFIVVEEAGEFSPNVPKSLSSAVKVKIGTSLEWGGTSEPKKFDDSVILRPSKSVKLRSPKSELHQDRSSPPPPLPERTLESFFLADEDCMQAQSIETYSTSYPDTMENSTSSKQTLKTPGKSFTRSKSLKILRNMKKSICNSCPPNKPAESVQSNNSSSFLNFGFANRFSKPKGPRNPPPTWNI

[13] = molecular target: T2, Carboxy-terminal domain RNA polymerase II polypeptide A small phosphatase 1 (Homo sapiens, UniProt Q9GZU7); assay: CTDSP1 inhibitors, concentration-response, biochemical, absorbance readout, ultra-high-throughput screen actives (AID 540297); format: functional
T2 sequence (Q9GZU7 whole entry): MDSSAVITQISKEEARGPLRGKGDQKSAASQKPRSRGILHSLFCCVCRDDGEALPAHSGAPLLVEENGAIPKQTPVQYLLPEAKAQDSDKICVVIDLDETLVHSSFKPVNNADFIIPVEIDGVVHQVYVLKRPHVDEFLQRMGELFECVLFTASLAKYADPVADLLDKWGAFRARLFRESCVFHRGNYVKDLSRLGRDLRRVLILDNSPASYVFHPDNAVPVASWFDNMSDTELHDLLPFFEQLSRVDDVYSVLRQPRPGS

[14] = molecular target: Tyrosine-protein phosphatase non-receptor type 11 (Homo sapiens, UniProt Q06124); assay: PTPN11 enzyme inhibitors – biochemical, selectivity assay for STEP inhibitor project, dose response (AID 602367); format: functional; settings: read-out: IC50_Mean
[15] = Late stage assay provider results from the probe development effort to identify inhibitors of the Plasmodium falciparum M17 Leucine Aminopeptidase (M17LAP): radiolabel-based cell-based dose response assay to identify compounds that inhibit P. falciparum growth in RBCs Set 2.; format: functional
[16] = test system: HeLa; assay: viability loss in HeLa cells – cell-based, ATP luminescence, cherry-pick samples, cytotoxicity control, dose response (AID 687004); format: functional; settings: Homo sapiens
[17] = test system: HepG2; assay: HepG2 Cytotoxicity Assay Measured in Cell-Based System Using Plate Reader - 7071-02_Inhibitor_Dose_CherryPick_Activity.; format: functional; settings: Homo sapiens
[18] = blockade of melanocortin 4 receptor signaling – cell-based, plate reader, cherry pick, counter-screen for LGR2 antagonist project, dose response (AID 743444); format: functional;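 also: transfected HEK 293 cells stimulated with alpha-MSH peptide; potency of inhibitors of the alpha-MSH evoked signal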
[19] = blockers of bursicon-stimulated LGR2 cAMP reporter – cell-based, HEK293, CRE-luciferase reporter, cherry pick, set 2, dose response (AID 743343); format: functional;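 also: transfected cells were stimulated with diluted bursicon conditioned medium after compound addition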
[20] = A549 cell cytotoxicity, dose response, cytotoxicity control, plate reader, cherry-pick, antagonist series (AID 743412); format: functional, cell-based

Compound: Cc1ccc2nc(NC(=O)C3CCN(S(=O)(=O)c4cccs4)CC3)sc2c1
AC50 [1]: 3.05 µM (active)
AC50 [2]: 13.9 µM (active)
AC50 [3]: > 70 µM (inactive)
AC50 [4]: 69.6 µM (active)
AC50 [5]: 46.5 µM (active)

Compound: COc1ccc(-c2cn(CC[C@@H]3CC[C@H](NC(=O)Nc4ccc(F)cc4)[C@H](CO)O3)nn2)cc1
AC50 [6]: 21.3 µM (active)
AC50 [7]: 38.8 µM (active)
AC50 [8]: 24.2 µM (active)

IC50 [9]: > 122 µM (inactive)
Compound: O=C(NNc1nc2cc3c(cc2s1)OCO3)c1ccc(F)cc1

IC50 [10]: 25.4 µM (inactive)
IC50 [11]: 4.27 µM (active)
IC50 [12]: 50.6 µM (inactive)
IC50 [13]: 3.74 µM (active)
IC50 [14]: 3.24 µM (active)
Compound: CCOC(=O)CN1C(=O)S/C(=C/c2ccc(OCc3ccc(C(=O)O)cc3)cc2)C1=O

Compound: CCCCOc1ccc(C(C)C(=O)NO)cc1 (stereo not given)
IC50 [15]: 12.9 µM (inactive)

Compound: CN(C[C@H]1N[C@@H](CO)[C@H]1c1ccc(-c2cccc(F)c2)cc1)S(C)(=O)=O
AC50 [16]: 20.3 µM (active)
AC50 [17]: 23.7 µM (active)

Compound: O=C(NCCc1ccc(Cl)cc1)c1ccc2c(c1)OCCO2
AC50 [18]: 21.2 µM (active)
AC50 [19]: 20.1 µM (active)
AC50 [20]: > 52 µM (inactive)
